The record followed here is patent publication US20250353864A1, “INDAZOLE CONTAINING MACROCYCLES AND THEIR USE” (BLOSSOMHILL THERAPEUTICS, INC., priority 2022, published 2025).

Like-named read-outs stand apart in the source and are kept apart here.

The conditions of series [1]: cc_pd bond.
Series [2] addresses EGFR WT (Homo sapiens (Human), UniProt P00533). Description: HotSpot radiometric kinase assay (Reaction Biology), EGFR WT. The class given is biochemical. Particulars: 10 μM ATP. In short, it runs like this: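 IC50 values come from curve fits of ^33P incorporation captured on P81 filters after acid washing. Kinase reactions ran 120 min at room temperature with 10 μM ATP, added about 20 min after compound. Buffer was Hepes pH 7.5 containing Mg, DTT and 1% DMSO.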

Series [3] addresses EGFR (D770_N771insNPG) (Homo sapiens (Human), UniProt P00533, INS770NPG). Description: HotSpot radiometric kinase assay, EGFR (D770_N771insNPG). The settings on record: 10 μM ATP, read-out: EGFR (Δ770_N771insNPG) IC50. The class given is biochemical. A digest of the protocol:
(§1)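 Enzyme and substrate pairs were exposed to inhibitor for roughly 20 min before radiolabelled ATP (10 μM final) was introduced; the reaction proceeded 120 min at ambient temperature in pH 7.5 buffer with 1% DMSO, and phosphorylated product was captured on P81 filters for IC50 determination.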

Series [4] concerns the target EGFR Δ746-750 mutant (Homo sapiens (Human), UniProt P00533, DEL746-750). Put plainly: HotSpot radiometric kinase assay, EGFR Δ746-750 mutant. It counts as biochemical. Particulars: 10 μM ATP. A digest of the protocol: as §1
The target of series [5] is EGFR Δ746-750/C797S mutant (Homo sapiens (Human), UniProt P00533, C797S/DEL746-750). Put plainly: HotSpot radiometric kinase assay, EGFR Δ746-750/C797S mutant. The class given is biochemical. The settings on record: 10 μM ATP. In short, it runs like this:
as §1

Series [6] deals with EGFR L858R mutant (Homo sapiens (Human), UniProt P00533, L858R). Put plainly: HotSpot radiometric kinase assay, EGFR L858R mutant. It counts as biochemical. Particulars: 10 μM ATP. A digest of the protocol: as §1
Series [7] concerns the target EGFR L858R/T790M mutant (Homo sapiens (Human), UniProt P00533, L858R/T790M). Put plainly: HotSpot radiometric kinase assay, EGFR L858R/T790M mutant. It counts as biochemical. Particulars: 10 μM ATP. A digest of the protocol: as §1
Series [8] deals with EGFR L858R/T790M/C797S mutant (Homo sapiens (Human), UniProt P00533, C797S/L858R/T790M). Put plainly: HotSpot radiometric kinase assay, EGFR L858R/T790M/C797S mutant. It counts as biochemical. Particulars: 10 μM ATP. In short, it runs like this:
as §1

Series [9] concerns the target ALK (Homo sapiens (Human), UniProt Q9UM73). Description: HotSpot radiometric kinase assay, inhibition of ALK kinase activity. The class given is biochemical. The settings on record: 10 μM ATP. A digest of the protocol: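 Radiometric filter-binding assay in which kinase and substrate in pH 7.5 Hepes buffer (1% DMSO) were preincubated with compound ~20 min before 10 μM ATP with 33P-ATP was added. Reactions ran 120 min at room temperature, were spotted on P81 paper and washed in phosphoric acid, and IC50 came from curve fits.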

In series [10] the target is CLK1 (Homo sapiens (Human), UniProt P49759). Put plainly: Inhibition of CLK1 kinase activity evaluated at Nanosyn (ADP-Glo). It counts as biochemical. The settings on record: ADP-Glo luminescence. In short, it runs like this:
(§2)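 ADP-Glo luminescence (40 min depletion, 10 min detection) quantifies ADP from ATP-initiated phosphorylation of substrate by each CLK isoform in HEPES pH 7.5 buffer, 1% DMSO, assay-specific incubation. %-inhibition calculated against uninhibited and enzyme-free controls.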

The target of series [11] is CLK2 (Homo sapiens (Human), UniProt P49760). Put plainly: Inhibition of CLK2 kinase activity evaluated at Nanosyn (ADP-Glo). The class given is biochemical. The settings on record: ADP-Glo luminescence. In short, it runs like this: as §2
Sequence of CLK2 (P49760 whole entry): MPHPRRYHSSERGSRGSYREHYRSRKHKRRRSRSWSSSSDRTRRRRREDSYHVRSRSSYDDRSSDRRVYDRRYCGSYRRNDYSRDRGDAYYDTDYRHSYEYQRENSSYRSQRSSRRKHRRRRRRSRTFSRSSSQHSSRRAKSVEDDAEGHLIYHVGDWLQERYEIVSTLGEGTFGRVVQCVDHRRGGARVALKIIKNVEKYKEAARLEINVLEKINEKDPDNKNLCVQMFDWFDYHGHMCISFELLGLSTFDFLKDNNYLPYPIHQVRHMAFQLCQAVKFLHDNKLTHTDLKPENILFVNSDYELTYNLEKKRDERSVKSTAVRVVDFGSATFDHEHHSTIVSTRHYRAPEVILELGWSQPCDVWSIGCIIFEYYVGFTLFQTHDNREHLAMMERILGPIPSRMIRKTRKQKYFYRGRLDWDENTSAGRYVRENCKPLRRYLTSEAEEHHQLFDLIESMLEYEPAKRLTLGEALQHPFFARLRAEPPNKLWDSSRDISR
The target of series [12] is CLK3 (Homo sapiens (Human), UniProt P49761). Description: Inhibition of CLK3 kinase activity evaluated at Nanosyn (ADP-Glo). It counts as biochemical. The settings on record: ADP-Glo luminescence. In short, it runs like this:
as §2

The target in series [13] is CLK4 (Homo sapiens (Human), UniProt Q9HAZ1). Put plainly: Inhibition of CLK4 kinase activity evaluated at Nanosyn (ADP-Glo). The class given is biochemical. Particulars: ADP-Glo luminescence. A digest of the protocol:
as §2

The conditions of series [14]: cc_pd bond; 15-membered ring; Pd(dppf)Cl2/Cs2CO3; 1,4-dioxane/H2O 5:1; 127.0 mM; 90.0 °C.

Sequence of EGFR Δ746-750/C797S mutant (P00533 other isoform, or with tags, fused parts or gaps C797S/del 1-668/del 746-750 limits assumed): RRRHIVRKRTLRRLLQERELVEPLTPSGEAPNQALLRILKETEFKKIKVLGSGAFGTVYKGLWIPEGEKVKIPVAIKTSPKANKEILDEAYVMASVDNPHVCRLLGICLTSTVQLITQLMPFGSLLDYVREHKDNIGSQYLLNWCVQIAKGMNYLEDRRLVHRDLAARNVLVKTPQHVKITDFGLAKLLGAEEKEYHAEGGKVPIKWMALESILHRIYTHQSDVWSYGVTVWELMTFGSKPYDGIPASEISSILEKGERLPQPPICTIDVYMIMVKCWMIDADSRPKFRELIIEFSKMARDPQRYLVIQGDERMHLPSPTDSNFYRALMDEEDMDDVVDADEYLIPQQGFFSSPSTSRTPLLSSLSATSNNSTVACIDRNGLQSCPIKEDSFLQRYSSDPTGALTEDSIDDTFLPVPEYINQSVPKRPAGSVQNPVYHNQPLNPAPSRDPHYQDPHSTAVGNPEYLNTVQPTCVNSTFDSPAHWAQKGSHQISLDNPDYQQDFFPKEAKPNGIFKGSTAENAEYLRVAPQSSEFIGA
Sequence of EGFR WT (P00533 25-1210): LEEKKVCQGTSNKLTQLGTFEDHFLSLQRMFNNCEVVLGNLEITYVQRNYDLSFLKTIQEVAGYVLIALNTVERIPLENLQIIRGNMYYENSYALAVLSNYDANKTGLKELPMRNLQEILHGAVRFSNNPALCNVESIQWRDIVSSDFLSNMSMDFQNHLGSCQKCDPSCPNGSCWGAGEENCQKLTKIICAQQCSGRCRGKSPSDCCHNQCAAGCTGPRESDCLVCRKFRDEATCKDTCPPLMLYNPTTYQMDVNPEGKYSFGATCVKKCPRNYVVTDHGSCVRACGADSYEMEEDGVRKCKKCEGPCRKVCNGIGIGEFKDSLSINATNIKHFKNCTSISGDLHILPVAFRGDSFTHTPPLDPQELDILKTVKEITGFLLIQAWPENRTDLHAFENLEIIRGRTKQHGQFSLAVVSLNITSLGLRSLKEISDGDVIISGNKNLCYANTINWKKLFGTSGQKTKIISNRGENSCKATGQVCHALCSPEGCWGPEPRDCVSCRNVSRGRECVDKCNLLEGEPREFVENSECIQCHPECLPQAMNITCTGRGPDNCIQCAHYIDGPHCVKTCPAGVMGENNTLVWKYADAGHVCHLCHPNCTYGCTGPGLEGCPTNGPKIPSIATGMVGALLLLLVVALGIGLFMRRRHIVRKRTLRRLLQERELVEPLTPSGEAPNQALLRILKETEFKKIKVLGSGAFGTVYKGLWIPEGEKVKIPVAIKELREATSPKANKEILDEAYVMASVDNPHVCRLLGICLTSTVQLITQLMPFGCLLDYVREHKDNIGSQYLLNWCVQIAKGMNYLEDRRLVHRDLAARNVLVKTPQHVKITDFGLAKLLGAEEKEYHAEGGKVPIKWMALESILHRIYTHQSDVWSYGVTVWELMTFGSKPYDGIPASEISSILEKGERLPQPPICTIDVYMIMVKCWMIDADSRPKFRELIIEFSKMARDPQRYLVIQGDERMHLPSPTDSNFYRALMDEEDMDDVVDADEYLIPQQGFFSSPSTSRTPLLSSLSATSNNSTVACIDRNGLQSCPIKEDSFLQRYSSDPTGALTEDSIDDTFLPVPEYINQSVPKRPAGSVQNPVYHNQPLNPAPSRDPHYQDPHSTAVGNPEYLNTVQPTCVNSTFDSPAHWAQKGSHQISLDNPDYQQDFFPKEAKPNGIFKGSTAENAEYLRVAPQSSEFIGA
Sequence of EGFR L858R/T790M mutant (P00533 25-1210 T790M/L858R): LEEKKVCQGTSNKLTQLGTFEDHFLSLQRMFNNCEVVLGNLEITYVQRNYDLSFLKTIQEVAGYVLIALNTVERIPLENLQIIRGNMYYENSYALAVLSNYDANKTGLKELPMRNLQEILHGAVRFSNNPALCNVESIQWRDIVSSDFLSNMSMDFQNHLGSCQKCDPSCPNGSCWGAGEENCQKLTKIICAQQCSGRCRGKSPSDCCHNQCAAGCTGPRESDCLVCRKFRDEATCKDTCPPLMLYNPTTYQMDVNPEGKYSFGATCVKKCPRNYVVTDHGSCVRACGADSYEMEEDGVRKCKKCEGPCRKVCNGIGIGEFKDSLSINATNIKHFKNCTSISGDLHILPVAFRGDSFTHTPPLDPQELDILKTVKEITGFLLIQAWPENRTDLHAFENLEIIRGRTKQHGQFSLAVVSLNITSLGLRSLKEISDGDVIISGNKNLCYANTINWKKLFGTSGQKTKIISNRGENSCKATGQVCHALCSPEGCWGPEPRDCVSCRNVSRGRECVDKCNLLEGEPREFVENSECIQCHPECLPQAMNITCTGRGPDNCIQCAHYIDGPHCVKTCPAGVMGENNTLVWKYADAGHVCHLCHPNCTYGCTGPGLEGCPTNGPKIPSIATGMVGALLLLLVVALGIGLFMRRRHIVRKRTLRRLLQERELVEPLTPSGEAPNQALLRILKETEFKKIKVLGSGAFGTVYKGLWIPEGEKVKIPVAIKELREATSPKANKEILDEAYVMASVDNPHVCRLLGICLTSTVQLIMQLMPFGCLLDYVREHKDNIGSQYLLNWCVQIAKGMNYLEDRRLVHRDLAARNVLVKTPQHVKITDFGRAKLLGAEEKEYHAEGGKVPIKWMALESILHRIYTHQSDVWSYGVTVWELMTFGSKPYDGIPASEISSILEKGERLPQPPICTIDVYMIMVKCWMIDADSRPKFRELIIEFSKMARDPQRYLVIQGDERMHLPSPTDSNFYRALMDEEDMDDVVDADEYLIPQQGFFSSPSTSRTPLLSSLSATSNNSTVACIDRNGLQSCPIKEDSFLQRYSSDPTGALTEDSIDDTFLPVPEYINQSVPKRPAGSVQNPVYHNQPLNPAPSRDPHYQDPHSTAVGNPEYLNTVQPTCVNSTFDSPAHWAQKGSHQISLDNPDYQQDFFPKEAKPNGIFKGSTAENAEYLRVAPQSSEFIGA
Sequence of EGFR (D770_N771insNPG) (P00533 other isoform, or with tags, fused parts or gaps del 1-668/ins NPG behind 770 limits assumed): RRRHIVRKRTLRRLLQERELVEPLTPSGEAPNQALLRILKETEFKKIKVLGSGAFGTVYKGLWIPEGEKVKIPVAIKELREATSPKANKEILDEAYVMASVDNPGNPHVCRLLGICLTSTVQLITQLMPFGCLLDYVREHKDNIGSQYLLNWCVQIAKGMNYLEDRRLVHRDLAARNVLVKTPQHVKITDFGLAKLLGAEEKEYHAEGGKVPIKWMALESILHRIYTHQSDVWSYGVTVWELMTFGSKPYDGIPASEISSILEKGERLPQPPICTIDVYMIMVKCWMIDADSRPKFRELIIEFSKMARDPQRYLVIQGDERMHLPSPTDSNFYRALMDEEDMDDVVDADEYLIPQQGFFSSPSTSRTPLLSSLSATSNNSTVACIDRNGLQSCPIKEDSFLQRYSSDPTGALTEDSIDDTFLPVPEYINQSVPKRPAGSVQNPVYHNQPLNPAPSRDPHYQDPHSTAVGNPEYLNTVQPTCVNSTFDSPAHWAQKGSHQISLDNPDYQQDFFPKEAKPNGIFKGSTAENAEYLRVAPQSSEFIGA
Sequence of CLK3 (P49761 whole entry): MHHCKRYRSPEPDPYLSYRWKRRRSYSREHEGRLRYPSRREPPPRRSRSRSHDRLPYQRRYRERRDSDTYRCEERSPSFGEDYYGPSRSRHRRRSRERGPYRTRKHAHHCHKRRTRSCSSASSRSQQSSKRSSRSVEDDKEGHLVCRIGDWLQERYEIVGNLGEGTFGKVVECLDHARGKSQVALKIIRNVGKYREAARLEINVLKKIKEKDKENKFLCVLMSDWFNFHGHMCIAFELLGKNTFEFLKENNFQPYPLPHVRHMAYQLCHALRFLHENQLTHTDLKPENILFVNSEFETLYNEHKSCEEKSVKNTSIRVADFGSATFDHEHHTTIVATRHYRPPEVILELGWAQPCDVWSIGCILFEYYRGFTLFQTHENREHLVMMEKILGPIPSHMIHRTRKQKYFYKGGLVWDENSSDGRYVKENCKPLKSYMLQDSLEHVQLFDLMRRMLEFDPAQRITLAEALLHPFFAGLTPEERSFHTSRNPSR
Sequence of EGFR Δ746-750 mutant (P00533 other isoform, or with tags, fused parts or gaps del 1-668/del 746-750 limits assumed): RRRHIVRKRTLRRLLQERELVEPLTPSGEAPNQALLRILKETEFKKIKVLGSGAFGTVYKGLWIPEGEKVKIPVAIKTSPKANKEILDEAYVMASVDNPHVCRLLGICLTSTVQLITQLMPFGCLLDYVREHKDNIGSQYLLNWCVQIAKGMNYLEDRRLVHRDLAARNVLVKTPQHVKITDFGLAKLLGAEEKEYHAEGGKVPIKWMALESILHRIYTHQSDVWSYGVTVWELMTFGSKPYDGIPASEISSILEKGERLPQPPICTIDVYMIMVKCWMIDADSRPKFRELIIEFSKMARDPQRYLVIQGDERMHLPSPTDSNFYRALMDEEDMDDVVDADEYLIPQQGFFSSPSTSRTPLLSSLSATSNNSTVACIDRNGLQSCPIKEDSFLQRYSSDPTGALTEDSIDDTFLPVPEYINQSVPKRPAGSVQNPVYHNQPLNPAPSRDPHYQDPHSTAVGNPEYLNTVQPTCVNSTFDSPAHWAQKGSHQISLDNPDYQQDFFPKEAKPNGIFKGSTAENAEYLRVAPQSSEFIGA

Regarding `CCOc1nn(CCO)c2c1/C=C/c1nn(C3CCCCO3)c3cc(F)c(cc13)-c1cnn(C)c1O[C@@H]1CCCN(C2)C1` (some centres unmarked), in series [1] (from CCOc1nn(CCO)c(CN2CCC[C@@H](Oc3c(-c4cc5c(/C=C/B6OC(C)(C)C(C)(C)O6)nn(C6CCCCO6)c5cc4F)cnn3C)C2)c1I, 15-membered ring, CataCXium A Pd G3/K3PO4, dioxane, 112.0 mM, 90.0 °C, 2.0 h), the ring closure, isolated yield turned out to be 42%.
In the case of `Cn1ncc2c1OCCN1CC[C@@H](Oc3cc(Cl)ccc3C=Cc3nn(C4CCCCO4)c4ccc-2cc34)C1=O` (some centres unmarked), the ring closure, isolated yield in series [1] (from Cn1ncc(-c2ccc3c(c2)c(/C=C/B2OC(C)(C)C(C)(C)O2)nn3C2CCCCO2)c1OCCN1CC[C@@H](Oc2cc(Br)ccc2I)C1=O, 17-membered ring, Pd(dppf)Cl2.CH2Cl2/K2CO3, dioxane/H2O 5:1, 19.4 mM, 90.0 °C, 2.0 h) was 38%.
Regarding `CCOC(=O)c1nn(C)c2c1-c1ccc3c(c1)c(nn3C1CCCCO1)/C=C/c1c(OCC)nn(CCO[Si](C)(C)C(C)(C)C)c1CN(CC)C[C@H](C)O2` (some centres unmarked), the ring closure, isolated yield in series [1] (from ethyl 5-[(1S)-2-[[2-[2-[tert-butyl(dimethyl)silyl]oxyethyl]-5-ethoxy-4-iodo-pyrazol-3-yl]methyl-ethyl-amino]-1-methyl-ethoxy]-1-methyl-4-(1-tetrahydropyran-2-yl-3-vinyl-indazol-5-yl) pyrazole-3-carboxylate, 15-membered ring, Pd(OAc)2/TBAC/NaHCO3, DMF, 67.4 mM, 120.0 °C) turned out to be 77%.
Turning to `Cc1n[nH]c2c1/C=C/c1nn(C3CCCCO3)c3ccc(cc13)-c1cnn(C)c1CN(C(=O)OC(C)(C)C)CCO2` (centres unmarked), the ring closure, isolated yield in series [1] (from tert-butyl N-[2-[(4-iodo-3-methyl-1H-pyrazol-5-yl)oxy]ethyl]-N-[[2-methyl-4-[1-tetrahydropyran-2-yl-3-[(E)-2-(4,4,5,5-tetramethyl-1,3,2-dioxaborolan-2-yl)vinyl]indazol-5-yl]pyrazol-3-yl]methylicarbamate, 15-membered ring) was determined as 54%.
As for `Cn1ncc2c1OCCN1CC[C@@H](Oc3ccccc3/C=C/c3nn(C4CCCCO4)c4ccc-2cc34)C1=O` (some centres unmarked), the ring closure, isolated yield in series [1] (from Cn1ncc(-c2ccc3c(c2)c(/C=C/B2OC(C)(C)C(C)(C)O2)nn3C2CCCCO2)c1OCCN1CC[C@@H](Oc2ccccc2I)C1=O, 17-membered ring, XPhos Pd G4/K3PO4, DMA, 25.0 mM, 80.0 °C, 2.0 h) amounted to 36%.
`Cc1c2c(nn1C)C=Cc1nn(C3CCCCO3)c3ccc(cc13)-c1cnn(C)c1O[C@@H](C)CN(C)C2` (some centres unmarked) yielded a ring closure, isolated yield in [1] (from Cc1c(CN(C)C[C@H](C)Oc2c(-c3ccc4c(c3)c(/C=C/B3OC(C)(C)C(C)(C)O3)nn4C3CCCCO3)cnn2C)c(I)nn1C, 15-membered ring, BrettPhos Pd G4/Na2CO3 aq, dioxane/H2O, 24.8 mM, 80.0 °C, 2.0 h) of 58%.
In turn, `CCOc1nn(CCO[Si](C)(C)C(C)(C)C)c2c1/C=C/c1nn(C3CCCCO3)c3cc(F)c(cc13)-c1c(C)nn(C)c1O[C@@H](C)CN(C(C)C)C2` (some centres unmarked) gave a ring closure, isolated yield in series [1] (from C=Cc1nn(C2CCCCO2)c2cc(F)c(-c3c(C)nn(C)c3O[C@@H](C)CN(Cc3c(I)c(OCC)nn3CCO[Si](C)(C)C(C)(C)C)C(C)C)cc12, 15-membered ring, Pd(OAc)2/TBAC/NaHCO3, DMF, 96.7 mM, 140.0 °C, 1.0 h) of 84%.
In the case of `Cc1nn(C)c2c1C=Cc1nn(C3CCCCO3)c3ccc(cc13)-c1cnn(C)c1OCCOC2` (centres unmarked), the ring closure, isolated yield in series [1] (from Cc1nn(C)c(COCCOc2c(-c3ccc4c(c3)c(/C=C/B3OC(C)(C)C(C)(C)O3)nn4C3CCCCO3)cnn2C)c1I, 15-membered ring, Pd XPhos G4/K3PO4, DMA/H2O, 55.3 mM, 90.0 °C, 3.0 h) came to 14.2%.
On to `Cc1nn(C)c2c1/C=C/c1n[nH]c3ccc(cc13)-c1cnn(C)c1O[C@@H](C)CN(C)C2` [Example 120, (10S,17E)-8,10,12,14,16-pentamethyl-2,10,11,12,13,14-hexahydro-8H-3,5-ethenotripyrazolo[3,4-f:3′,4′-j:4″,3″- n][1,4]oxazacyclopentadecine], for which the IC50 in series [2] stood at 41.3 nM; in series [3], 99.8 nM; in series [4], 7.76 nM; in series [5], 5.8 nM; in [6], 7.91 nM; in series [7], 0.33 nM. For the same molecule, the IC50 in series [8] amounted to 2.62 nM; in series [9] it was 1.82 nM; in series [10] it was 0.12 nM; in series [11], 0.08 nM; in series [12] it was 112 nM; in [13], 0.27 nM.
Molecule `Cc1nn(C)c2c1/C=C/c1nn(C3CCCCO3)c3ccc(cc13)-c1cnn(C)c1CN(C)CC(C)O2` (centres unmarked) displayed a ring closure, isolated yield in [1] (from Cc1nn(C)c(OC(C)CN(C)Cc2c(-c3ccc4c(c3)c(/C=C/B3OC(C)(C)C(C)(C)O3)nn4C3CCCCO3)cnn2C)c1I, 15-membered ring, XPhos Pd G4/K3PO4, DMA, 66.5 mM, 80.0 °C, 2.0 h) of 24%.
For `CCOc1nn([C@@H](C)CO)c2c1/C=C/c1n[nH]c3cc(F)c(cc13)-c1cnn(C)c1O[C@@H](C)CN(C)C2` [Example 214, (2S)-2-[(10S,17E)-16-ethoxy-19-fluoro-8,10,12-trimethyl-2,8,10,11,12,13-hexahydro-14H-3,5-ethenotripyrazolo[3,4-f:3′,4′-j:4″,3″- n][1,4]oxazacyclopentadecin-14-yl]propan-1-ol], the IC50 in [2] was determined as 0.77 nM; in series [3] it was 8.31 nM; in [4], 0.22 nM; in series [5], 0.48 nM; in [6], 0.35 nM; in series [7], 0.2 nM. Besides, the IC50 in series [8] was 0.17 nM; in series [9], 2.47 nM; in [10], 2.37 nM; in series [11], 2.51 nM; in [12], 592 nM; in [13], 7.25 nM.
As to `C[C@H]1CN(C)Cc2c(c(OCC#N)nn2C)/C=C/c2n[nH]c3ccc(cc23)-c2cnn(C)c2O1` [Example 163, {[(10S,17E)-8,10,12,14-tetramethyl-2,10,11,12,13,14-hexahydro-8H-3,5-ethenotripyrazolo[3,4-f:3′,4′-j:4″,3″-n][1,4]oxazacyclopentadecin-16-yl]oxy}acetonitrile], the IC50 came out at 29.6 nM in series [2]; 52 nM in [3]; 7.33 nM in series [4]; 4.72 nM in series [5]; 8.2 nM in [6]; 0.85 nM in series [7]. The IC50 in series [8] is 0.86 nM; in [9], 1.13 nM; in [10] it was 0.28 nM; in series [11] it was 0.06 nM; in series [12] it was 215 nM; in series [13] it was 0.63 nM.
As for `CC(C)Oc1nn(CCO)c2c1/C=C/c1n[nH]c3ccc(cc13)-c1cnn(C)c1O[C@@H](C)CN(C)C2` [Example 147, 2-{(10S,17E)-8,10,12-trimethyl-16-[(propan-2-yl)oxy]-2,8,10,11,12,13-hexahydro-14H-3,5-ethenotripyrazolo[3,4-f:3′,4′-j:4″,3″-n][1,4]oxazacyclopentadecin-14-yl}ethan-1-ol], the IC50 in [2] was found to be 3.16 nM; in [3], 9.08 nM; in series [4], 0.59 nM; in series [5], 0.39 nM; in [6] it was 0.44 nM; in series [7], 0.11 nM. Further, the half-inhibitory concentration (IC50) in series [8] came to 0.19 nM; in series [9] it was 0.99 nM; in series [10] it was 0.13 nM; in [11], 0.02 nM; in series [12], 5.21 nM; in [13] it was 0.32 nM.
Molecule “2-[(17E)-5,15-dimethyl-21-tetrahydropyran-2-yl-7,10-dioxa-4,5,13,14,20,21-hexazapentacyclo[17.5.2.0^2,6.0^12,160.0^22,26]hexacosa-1(25),2(6),3,12(16),14,17,19,22(26),23-nonaen-13-yl]acetic acid” came in with a ring closure, yield after HPLC in series [14] of 30%.
Consider `COC(=O)[C@H]1CN(C)Cc2c(c(OC(C)C)nn2CCO[Si](C)(C)C(C)(C)C)/C=C/c2nn(C3CCCCO3)c3ccc(cc23)-c2cnn(C)c2O1` (some centres unmarked), for which, in series [1] (from C=Cc1nn(C2CCCCO2)c2ccc(-c3cnn(C)c3O[C@H](CN(C)Cc3c(I)c(OC(C)C)nn3CCO[Si](C)(C)C(C)(C)C)C(=O)OC)cc12, 15-membered ring, Pd(OAc)2/TBAC/TEA, DMF, 11.6 mM, 100.0 °C, 2.0 h), the ring closure, isolated yield came to 47%.
